Measured values published in publication PMC2774256 (Bioorganic & medicinal chemistry, 2009).
Square brackets hold non-standard residues; d marks the D form. Ends that are not written are not given here. * marks the point of attachment. dNMeF = CN[C@H](Cc1ccccc1)C(=O)O; Cha = N[C@@H](CC1CCCCC1)C(=O)O; NMeL = CN[C@@H](CC(C)C)C(=O)O; dNMeV = CN[C@@H](C(=O)O)C(C)C; NMeV = CN[C@H](C(=O)O)C(C)C; Cbz = O=C(OCc1ccccc1)*; Bn = c1ccc(C*)cc1

Columns and labels:
[1] = system: PL-45 pancreatic cancer cells; assay: 3H-thymidine incorporation/growth inhibition assay
[2] = system: BxPC-3 pancreatic cancer cells; assay: 3H-thymidine incorporation/growth inhibition assay

Substance | cytotoxicity / growth inhibition in words [1] | cytotoxicity / growth inhibition in words [2]
FLVK(Cbz)[NMeL] [Compound 68] | not toxic | not toxic
FL[NMeV]L[dF] [Compound 62] | relatively non-toxic | relatively non-toxic
FL[dV][dL]L [Compound 37] | not potent | not potent
F[dNMeF]V[Cha]L [Compound 49] | underwhelming cytotoxicity | underwhelming cytotoxicity
F[dNMeF]V[Cha]S(Bn) [Compound 60] | not effective | not effective
F[dNMeF][dV]LL [Compound 32] | cytotoxic | very poor cytotoxicity
[dF]L[NMeV][dL][dF] [Compound 61] | relatively non-toxic | relatively non-toxic
[dY][dNMeF]VLL [Compound 15] | cytotoxic | very poor cytotoxicity
cyclo(FL[dNMeV][dK][dF]) [Compound 64] | not toxic | not toxic
